Results on 8 compounds are retold here after US10570179B2, “Substituted urea depsipeptide analogs as activators of the CLPP endopeptidase” (priority 2016, dated 2020).

The target of one series is T1, Sa-ClpP (Staphylococcus aureus, UniProt Q2G036).
T1 construct: made in house; host or cells: E. coli BL21 (DE3)
Kind of series: ADEP displacement fluorescence polarization assay. The format is binding, S. aureus. As to conditions: displacement of FP probe ADEP 2591 from Sa-ClpP. The method in brief: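 Master mix of 15 μM Sa-ClpP and 50 nM TAMRA-labelled ADEP 2591 probe in Tris-HCl pH 8.0, 2% DMSO, was pre-equilibrated 1 h at RT, then compounds were added and incubated 120 min at RT. Polarization (ex 530, em 579 nm, mP) was normalised to 200 μM ADEP 2378 and DMSO controls and fitted by four-parameter regression, in triplicate.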
For orientation: Fluorescence polarisation rises when a labelled molecule tumbles more slowly, as on binding a larger partner.

The next series relates to S. aureus ΔClpP. The series is described as follows: Minimal inhibitory concentration, microbroth dilution. The format is cell-based, Staphylococcus aureus. As to conditions: MIC; ClpP inactivated. The method in brief:
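Compound was diluted twofold in the appropriate broth. Bacterial suspension (approx. 10^5 cfu/mL) was then added in equal volume, giving a maximum test concentration of 200 μM. After aerobic overnight incubation at 37 °C, wells were inspected visually for growth.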
For orientation: Dilution methods test growth across graded concentrations, often in twofold steps.

Series [1] can be described thus: Plasma protein binding, rapid equilibrium dialysis. The format is in vitro ADME, human. As to conditions: 10 μM. The method in brief:
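Compound spiked at 10 μM (0.1% DMSO) into human plasma, dialysed against DPBS pH 7.4 across 8 K MWCO RED membrane for 4 h at 37 °C with shaking. Both chambers quantified by LC-MS against warfarin internal standard; % free = buffer/plasma concentration ×100, % bound = 100 − % free.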

The mark [2] stands for this setting: plasma binding, % Bound, human plasma.

Numbered stars: 1 amine (or outer) side, 2 acyl side, 3 side chain; on linkers, the order of the positions; unused ones are H or OH. Bridge positions count the residues as written; N and C are the ends. Square brackets hold non-standard residues; d marks the D form. Peptide text beside a SMILES is read from it. * marks the point of attachment. X5 = O=C([C@@H]1C[C@@H](OP(=O)(O)O)CN1[*:1])[*:2]; Piperazine(2S-CO,4-Me) = CN1CCN[C@H](C(=O)O)C1; Phe(3-Cl) = N[C@@H](Cc1cccc(Cl)c1)C(=O)O; Morpholine(3S-CO) = O=C(O)[C@@H]1COCCN1; Phe(3-Me) = Cc1cccc(C[C@H](N)C(=O)O)c1; NH(4-Cl-2-F-phenyl) = Fc1cc(Cl)ccc1N*; Pro(4R-Me) = C[C@H]1CN[C@H](C(=O)O)C1; Hyp = O=C(O)[C@@H]1C[C@@H](O)CN1; NH(4-Et-phenyl) = CCc1ccc(N*)cc1; NH(4-Me-phenyl) = Cc1ccc(N*)cc1; aThr = C[C@H](O)[C@H](N)C(=O)O; Pip = O=C(O)[C@@H]1CCCCN1; X3 = c1cc2c(cc1N*)OCCO2; CO = O=C([*:1])[*:2]

T1 sequence (Q2G036 whole entry): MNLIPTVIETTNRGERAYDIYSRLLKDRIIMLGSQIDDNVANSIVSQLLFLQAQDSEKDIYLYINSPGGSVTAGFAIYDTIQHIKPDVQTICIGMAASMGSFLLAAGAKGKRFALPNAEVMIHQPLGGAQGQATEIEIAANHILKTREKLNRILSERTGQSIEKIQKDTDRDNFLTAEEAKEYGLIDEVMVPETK

In general, IC50 refers to the concentration at which inhibition is half-maximal. Low readings indicate inhibition by little substance, high ones a need for much substance. `CCc1ccc(NC(=O)N[C@@H](Cc2cccc(C)c2)C(=O)N[C@@H]2C(=O)N3C[C@H](O)C[C@H]3C(=O)N3CCCC[C@H]3C(=O)N[C@@H](C)C(=O)N3C[C@H](C)C[C@H]3C(=O)O[C@H]2C)cc1` [Compound 25, (S)-2-(3-(4-ETHYLPHENYL)UREIDO)-N-((2R,6S,8AS,14AS,16R,20S,21S,23AS)-16-HYDROXY-2,6,21-TRIMETHYL-5,8,14,19,23-PENTAOXOOCTADECAHYDRO-1H,5H,14H,19H-PYRIDO[2,1-I]DIPYRROLO[2,1-C:2′,1′-L][1]OXA[4,7,10,13]TETRAAZACYCLOHEXADECIN-20-YL)-3-(M-TOLYL)PROPANAMIDE] ({NH(4-Et-phenyl)-CO}-[Phe(3-Me)][aThr][Hyp][Pip]A[Pro(4R-Me)]; ester 2-C) yielded an IC50 at Sa-ClpP of 4.76 ± 0.33 µM. Moreover, in the series with S. aureus ΔClpP, the “Minimal Inhibitory Concentrations (μM) S. aureus ΔClpP” value is greater than 20 µM. Also, the Human in series [1] (human, 4 h, pH 7.4) is recorded as 99.2 ± 0.3%.
As to `Cc1ccc(NC(=O)N[C@@H](Cc2cccc(C)c2)C(=O)N[C@@H]2C(=O)N3C[C@H](O)C[C@H]3C(=O)N3CCCC[C@H]3C(=O)N[C@@H](C)C(=O)N3C[C@H](C)C[C@H]3C(=O)O[C@H]2C)cc1` [Compound 26, (S)—N-((2R,6S,8AS,14AS,16R,20S,21S,23AS)-16-HYDROXY-2,6,21-TRIMETHYL-5,8,14,19,23-PENTAOXOOCTADECAHYDRO-1H,5H,14H,19H-PYRIDO[2,1-I]DIPYRROLO[2,1-C:2′,1′-L][1]OXA[4,7,10,13]TETRAAZACYCLOHEXADECIN-20-YL)-3-(M-TOLYL)-2-(3-(P-TOLYL)UREIDO)PROPANAMIDE] ({NH(4-Me-phenyl)-CO}-[Phe(3-Me)][aThr][Hyp][Pip]A[Pro(4R-Me)]; ester 2-C), the IC50 on Sa-ClpP stood at 4.26 ± 0.16 µM. Also, the “Minimal Inhibitory Concentrations (μM) S. aureus ΔClpP” value in the series with S. aureus ΔClpP is greater than 20 µM. Moreover, the Human in series [1] (setting [2]) is 98.8 ± 0.1%.
With `Cc1cccc(C[C@H](NC(=O)Nc2ccc3c(c2)OCCO3)C(=O)N[C@@H]2C(=O)N3C[C@H](O)C[C@H]3C(=O)N3CCOC[C@H]3C(=O)N[C@@H](C)C(=O)N3C[C@H](C)C[C@H]3C(=O)O[C@H]2C)c1` [Compound 27, (S)-2-(3-(2,3-DIHYDROBENZO[B][1,4]DIOXIN-6-YL)UREIDO)-N-((6AS,8R,12S,13S,15AS,17R,21S,23AS)-8-HYDROXY-13,17,21-TRIMETHYL-6,11,15,20,23-PENTAOXOOCTADECAHYDRO-6H,11H,15H-[1,4]OXAZINO[3,4-I]DIPYRROLO[2,1-C:2′,1′-L][1]OXA[4,7,10,13]TETRAAZACYCLOHEXADECIN-12-YL)-3-(M-TOLYL)PROPANAMIDE] ({X3-CO}-[Phe(3-Me)][aThr][Hyp][Morpholine(3S-CO)]A[Pro(4R-Me)]; ester 2-C), the IC50 on Sa-ClpP amounted to 5.13 ± 0.16 µM. In addition, the “Minimal Inhibitory Concentrations (μM) S. aureus ΔClpP” value in the series with S. aureus ΔClpP was greater than 20 µM. The Human in series [1] (human, 4 h, pH 7.4) is on record as 91.1 ± 1.1%.
For `Cc1cccc(C[C@H](NC(=O)Nc2ccc3c(c2)OCCO3)C(=O)N[C@@H]2C(=O)N3C[C@H](O)C[C@H]3C(=O)N3CCCC[C@H]3C(=O)N[C@@H](C)C(=O)N3C[C@H](C)C[C@H]3C(=O)O[C@H]2C)c1` [Compound 28, (S)-2-(3-(2,3-DIHYDROBENZO[B][1,4]DIOXIN-6-YL)UREIDO)-N-((2R,6S,8AS,14AS,16R,20S,21S,23AS)-16-HYDROXY-2,6,21-TRIMETHYL-5,8,14,19,23-PENTAOXOOCTADECAHYDRO-1H,5H,14H,19H-PYRIDO[2,1-I]DIPYRROLO[2,1-C:2′,1′-L][1]OXA[4,7,10,13]TETRAAZACYCLOHEXADECIN-20-YL)-3-(M-TOLYL)PROPANAMIDE] ({X3-CO}-[Phe(3-Me)][aThr][Hyp][Pip]A[Pro(4R-Me)]; ester 2-C), in that order: 4.86 ± 0.17 µM, greater than 20 µM and 92.9 ± 2.9%.
In the case of `Cc1cccc(C[C@H](NC(=O)Nc2ccc(Cl)cc2F)C(=O)N[C@@H]2C(=O)N3C[C@H](OP(=O)(O)O)C[C@H]3C(=O)N3CCCC[C@H]3C(=O)N[C@@H](C)C(=O)N3C[C@H](C)C[C@H]3C(=O)O[C@H]2C)c1` [Compound 29, (2R,6S,8AS,14AS,16R,20S,21S,23AS)-20-((S)-2-(3-(4-CHLORO-2-FLUOROPHENYL)UREIDO)-3-(M-TOLYL)PROPANAMIDO)-2,6,21-TRIMETHYL-5,8,14,19,23-PENTAOXOOCTADECAHYDRO-1H,5H,14H,19H-PYRIDO[2,1-I]DIPYRROLO[2,1-C:2′,1′-L][1]OXA[4,7,10,13]TETRAAZACYCLOHEXADECIN-16-YL DIHYDROGEN PHOSPHATE] ({NH(4-Cl-2-F-phenyl)-CO}-[Phe(3-Me)][aThr][X5][Pip]A[Pro(4R-Me)]; ester 2-C), the IC50 on Sa-ClpP came out at 4.45 ± 0.45 µM. The “Minimal Inhibitory Concentrations (μM) S. aureus ΔClpP” value with S. aureus ΔClpP was greater than 20 µM. Also, the Human in series [1] (setting [2]) worked out at 98.8 ± 8.8%.
For `Cc1ccc(NC(=O)N[C@@H](Cc2cccc(C)c2)C(=O)N[C@@H]2C(=O)N3C[C@H](O)C[C@H]3C(=O)N3CCN(C)C[C@H]3C(=O)N[C@@H](C)C(=O)N3C[C@H](C)C[C@H]3C(=O)O[C@H]2C)cc1` [Compound 30, (S)—N-((6AS,8R,12S,13S,15AS,17R,21S,23AS)-8-HYDROXY-2,13,17,21-TETRAMETHYL-6,11,15,20,23-PENTAOXOOCTADECAHYDRO-2H,6H,11H,15H-PYRAZINO[2,1-I]DIPYRROLO[2,1-C:2′,1′-L][1]OXA[4,7,10,13]TETRAAZACYCLOHEXADECIN-12-YL)-3-(M-TOLYL)-2-(3-(P-TOLYL)UREIDO)PROPANAMIDE] ({NH(4-Me-phenyl)-CO}-[Phe(3-Me)][aThr][Hyp][Piperazine(2S-CO,4-Me)]A[Pro(4R-Me)]; ester 2-C) the same measures were 3.41 ± 0.41 µM, greater than 20 µM and 94.8 ± 4.8%.
`Cc1cccc(C[C@H](NC(=O)Nc2ccc(Cl)cc2F)C(=O)N[C@@H]2C(=O)N3C[C@H](O)C[C@H]3C(=O)N3CCN(C)C[C@H]3C(=O)N[C@@H](C)C(=O)N3C[C@H](C)C[C@H]3C(=O)O[C@H]2C)c1` [Compound 31, (S)-2-(3-(4-CHLORO-2-FLUOROPHENYL)UREIDO)-N-((6AS,8R,12S,13S,15AS,17R,21S,23AS)-8-HYDROXY-2,13,17,21-TETRAMETHYL-6,11,15,20,23-PENTAOXOOCTADECAHYDRO-2H,6H,11H,15H-PYRAZINO[2,1-I]DIPYRROLO[2,1-C:2′,1′-L][1]OXA[4,7,10,13]TETRAAZACYCLOHEXADECIN-12-YL)-3-(M-TOLYL)PROPANAMIDE] ({NH(4-Cl-2-F-phenyl)-CO}-[Phe(3-Me)][aThr][Hyp][Piperazine(2S-CO,4-Me)]A[Pro(4R-Me)]; ester 2-C) yielded a 50% inhibitory concentration (IC50) on Sa-ClpP of 3.07 ± 0.07 µM. Moreover, the “Minimal Inhibitory Concentrations (μM) S. aureus ΔClpP” value in the series on S. aureus ΔClpP was greater than 20 µM. Further, the Human in series [1] (human, 4 h, pH 7.4) is reported as 97.9 ± 7.9%.
Take `C[C@@H]1C[C@H]2C(=O)O[C@@H](C)[C@H](NC(=O)[C@H](Cc3cccc(Cl)c3)NC(=O)Nc3ccc(Cl)cc3F)C(=O)N3CCC[C@H]3C(=O)N3CCN(C)C[C@H]3C(=O)N[C@@H](C)C(=O)N2C1` [Compound 33] ({NH(4-Cl-2-F-phenyl)-CO}-[Phe(3-Cl)][aThr]P[Piperazine(2S-CO,4-Me)]A[Pro(4R-Me)]; ester 2-C): the IC50 at Sa-ClpP was found to be 3.16 ± 0.16 µM. For the same compound, the “Minimal Inhibitory Concentrations (μM) S. aureus ΔClpP” value in the series on S. aureus ΔClpP was greater than 20 µM. Further, in series [1] (human, 4 h, pH 7.4), the Human is 99.1 ± 9.1%.
